Data as given in article PMC6004018, “Dual-functional peptide with defective interfering genes effectively protects mice against avian and seasonal influenza” (Nature Communications, 2018).
In brackets after ≈: the same amount, converted by molar mass. Read-outs that look alike come from different tables or passages of the source. Residues, ends and D or L forms follow the SMILES beside them.

Assays:
A(H1N1)pdm09 virus [1] = format: cell-based
[2] = system: endosomal acidification in MDCK cells; assay: Endosomal acidification analysis in live cells; format: cell-based, canine; conditions: pHrodo Red dextran, P1 25.0 μg ml-1, TAT-P1 3.1 μg ml-1, bafilomycin A1 100.0 nM, PA1 25.0 μg ml-1
293T cells [3] = system: 293T cells
MDCK cells = assay: MTT cytotoxicity assay in MDCK cells; conditions: 24 h incubation at 37 °C, DMEM with 1% FBS, three independent experiments
293T cells [4] = assay: MTT cytotoxicity assay in 293T cells; conditions: 24 h incubation at 37 °C, DMEM with 1% FBS, three independent experiments
A(H7N7) virus [5] = conditions: 1 h, pH 7.4
[6] = system: HA-mediated membrane fusion (H7N7 HA in 293T cells); conditions: pH 5
[7] = target: viral HA protein (H1N1 glycoprotein HA1) (Influenza A virus, UniProt C3W5S1); conditions: ELISA (peptide 0.1 μg per well, HA1 2 μg ml-1) and western blot (peptide 1 μg)
A(H1N1)pdm09 virus [8] = conditions: 1 h, pH 7.4
A(H7N7) virus [9] = system: A(H7N7) virus; parameters: species or system BALB/c female mice; conditions: mouse, in vivo
endosomal acidification = conditions: cited from earlier work
A(H7N7) virus [10] = format: cell-based
A(H1N1)pdm09 virus [11] = system: A(H1N1)pdm09 virus; parameters: species or system BALB/c female mice; conditions: mouse, in vivo
A(H1N1)pdm09 virus [12] = system: A(H1N1)pdm09 virus; parameters: species or system BALB/c female mice; conditions: in vivo

viral HA protein (H1N1 glycoprotein HA1), sequence (C3W5S1 18-344 limits assumed): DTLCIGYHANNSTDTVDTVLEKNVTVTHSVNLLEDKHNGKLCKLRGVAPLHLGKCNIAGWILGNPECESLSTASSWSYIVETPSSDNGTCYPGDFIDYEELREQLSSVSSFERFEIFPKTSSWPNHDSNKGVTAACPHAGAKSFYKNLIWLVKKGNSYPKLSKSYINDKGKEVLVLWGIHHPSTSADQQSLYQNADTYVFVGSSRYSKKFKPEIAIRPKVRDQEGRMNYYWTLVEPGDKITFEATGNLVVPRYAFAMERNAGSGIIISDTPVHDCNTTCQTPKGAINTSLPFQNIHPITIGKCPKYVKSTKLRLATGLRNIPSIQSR

## CO/C1=C\C(C)=C\[C@@H](C)[C@@H](O)[C@@H](C)C/C(C)=C/C=C/[C@H](OC)[C@@H]([C@@H](C)[C@@H](O)[C@H](C)[C@@]2(O)C[C@@H](O)[C@H](C)[C@@H](C(C)C)O2)OC1=O [Bafilomycin A1, reference compound]
A(H1N1)pdm09 virus [1]
  block of viral RNP release into the nuclei: blocked viral RNP release into the nuclei
[2]
  prevention of endosomal acidification: prevented endosomal acidification

## CC[C@H](C)[C@H](NC(=O)[C@H](CCC(N)=O)NC(=O)[C@H](CCCNC(=N)N)NC(=O)[C@H](Cc1ccccc1)NC(=O)[C@H](C)NC(=O)[C@@H](NC(=O)[C@@H]1CCCN1C(=O)[C@H](CS)NC(=O)[C@@H]1CCCN1C(=O)CNC(=O)[C@H](Cc1c[nH]c2ccccc12)NC(=O)[C@@H](N)CS)[C@@H](C)O)C(=O)NCC(=O)N[C@@H](CC(N)=O)C(=O)N[C@@H](CS)C(=O)NCC(=O)N[C@@H](CCCNC(=N)N)C(=O)N[C@@H](Cc1ccccc1)C(=O)N[C@@H](CCCNC(=N)N)C(=O)N[C@H](C(=O)N[C@@H](CCCNC(=N)N)C(=O)N[C@@H](CS)C(=O)N[C@@H](CS)C(=O)N[C@@H](CCCNC(=N)N)C(=O)N[C@H](C(=O)N[C@@H](CCCNC(=N)N)C(=O)O)[C@@H](C)CC)C(C)C [P1] (H-CWGPCPTAFRQIGNCGRFRVRCCRIR-OH)
H7N7 virus
  inhibition of viral replication in 293T cells: significantly inhibit viral replication
293T cells [3]
  concentration that significantly enhances the transfection efficiency of plasmid DNA: 12.5
MDCK cells
  CC50 (MDCK): > 400 µg/mL
A(H1N1)pdm09 virus [1]
  block of viral RNP release into the nuclei: blocked viral RNP release into the nuclei
293T cells [4]
  CC50 (293T): > 400 µg/mL
[2]
  prevention of endosomal acidification: prevented endosomal acidification
A(H7N7) virus [5]
  IC50 (H7N7): 1.56 µg/mL (≈ 0.51 µM)
[6]
  inhibition of HA-mediated membrane fusion: did not inhibit HA-mediated membrane fusion
[7]
  binding to viral HA protein: bind to viral HA protein

## N=C(N)NCCC[C@H](NC(=O)[C@H](CCCNC(=N)N)NC(=O)[C@H](CCCNC(=N)N)NC(=O)[C@H](CCC(N)=O)NC(=O)[C@H](CCCNC(=N)N)NC(=O)[C@H](CCCNC(=N)N)NC(=O)[C@H](CCCCN)NC(=O)[C@H](CCCCN)NC(=O)[C@H](CCCNC(=N)N)NC(=O)CNC(=O)[C@@H](N)Cc1ccc(O)cc1)C(=O)O [TAT, reference compound]
MDCK cells
  CC50 (MDCK): > 400 µg/mL
293T cells [4]
  CC50 (293T): > 400 µg/mL

## CC[C@H](C)[C@H](NC(=O)[C@H](CCC(N)=O)NC(=O)[C@H](CCCNC(=N)N)NC(=O)[C@H](Cc1ccccc1)NC(=O)[C@H](C)NC(=O)[C@@H](NC(=O)[C@@H]1CCCN1C(=O)[C@H](CS)NC(=O)[C@@H]1CCCN1C(=O)CNC(=O)[C@H](Cc1c[nH]c2ccccc12)NC(=O)[C@H](CS)NC(=O)[C@H](CCCNC(=N)N)NC(=O)[C@H](CCCNC(=N)N)NC(=O)[C@H](CCCNC(=N)N)NC(=O)[C@H](CCC(N)=O)NC(=O)[C@H](CCCNC(=N)N)NC(=O)[C@H](CCCNC(=N)N)NC(=O)[C@H](CCCCN)NC(=O)[C@H](CCCCN)NC(=O)[C@H](CCCNC(=N)N)NC(=O)CNC(=O)[C@@H](N)Cc1ccc(O)cc1)[C@@H](C)O)C(=O)NCC(=O)N[C@@H](CC(N)=O)C(=O)N[C@@H](CS)C(=O)NCC(=O)N[C@@H](CCCNC(=N)N)C(=O)N[C@@H](Cc1ccccc1)C(=O)N[C@@H](CCCNC(=N)N)C(=O)N[C@H](C(=O)N[C@@H](CCCNC(=N)N)C(=O)N[C@@H](CS)C(=O)N[C@@H](CS)C(=O)N[C@@H](CCCNC(=N)N)C(=O)N[C@H](C(=O)N[C@@H](CCCNC(=N)N)C(=O)O)[C@@H](C)CC)C(C)C [TAT-P1] (H-YGRKKRRQRRRCWGPCPTAFRQIGNCGRFRVRCCRIR-OH)
H7N7 virus
  inhibition of viral replication in 293T cells: significantly inhibit viral replication
A(H1N1)pdm09 virus [8]
  IC50 (H1N1): 0.67 µg/mL (≈ 0.146 µM)
A(H7N7) virus [9]
  survival: 30%
A(H1N1)pdm09 virus [1]
  block of viral RNP release into the nuclei: blocked viral RNP release into the nuclei
Plasmid DNA
  weight ratio (peptide:DNA) at which complexes with DNA form: > 2
[2]
  prevention of endosomal acidification: prevented endosomal acidification
A(H7N7) virus [5]
  IC50 (H7N7): 0.56 µg/mL (≈ 0.122 µM)
[6]
  inhibition of HA-mediated membrane fusion: did not inhibit HA-mediated membrane fusion
[7]
  binding to viral HA protein: bind to viral HA protein

## CC[C@H](C)[C@H](NC(=O)[C@H](CCCNC(=N)N)NC(=O)[C@H](CS)NC(=O)[C@H](CS)NC(=O)[C@H](CCCNC(=N)N)NC(=O)[C@@H](NC(=O)[C@H](CCCNC(=N)N)NC(=O)[C@H](Cc1ccccc1)NC(=O)[C@H](CCCNC(=N)N)NC(=O)CNC(=O)[C@H](CS)NC(=O)[C@H](CC(N)=O)NC(=O)[C@H](CCCNC(=N)N)NC(=O)[C@H](CCCCN)NC(=O)[C@H](CCCNC(=N)N)NC(=O)[C@H](Cc1ccccc1)NC(=O)[C@H](C)NC(=O)[C@H](CCCNC(=N)N)NC(=O)[C@@H]1CCCN1C(=O)[C@H](CS)NC(=O)[C@@H]1CCCN1C(=O)[C@H](CCCNC(=N)N)NC(=O)[C@H](Cc1c[nH]c2ccccc12)NC(=O)[C@H](CS)NC(=O)[C@H](CCCNC(=N)N)NC(=O)[C@H](CCCNC(=N)N)NC(=O)[C@H](CCCNC(=N)N)NC(=O)[C@H](CCC(N)=O)NC(=O)[C@H](CCCNC(=N)N)NC(=O)[C@H](CCCNC(=N)N)NC(=O)[C@H](CCCCN)NC(=O)[C@H](CCCCN)NC(=O)[C@H](CCCNC(=N)N)NC(=O)CNC(=O)[C@@H](N)Cc1ccc(O)cc1)[C@@H](C)CC)C(=O)N[C@@H](CCCNC(=N)N)C(=O)O [TAT-P2] (H-YGRKKRRQRRRCWRPCPRAFRKRNCGRFRIRCCRIR-OH; N-terminus and C-terminus assumed)
A(H1N1)pdm09 virus [8]
  IC50 (H1N1): 0.76 µg/mL (≈ 0.16 µM)
A(H7N7) virus [5]
  IC50 (H7N7): 0.97 µg/mL (≈ 0.204 µM)

## CC[C@H](C)[C@H](NC(=O)[C@H](CCCNC(=N)N)NC(=O)[C@H](CS)NC(=O)[C@H](CCCNC(=N)N)NC(=O)[C@@H](NC(=O)[C@H](CCCNC(=N)N)NC(=O)[C@H](Cc1ccccc1)NC(=O)[C@H](CCCNC(=N)N)NC(=O)CNC(=O)[C@H](CS)NC(=O)[C@H](CC(C)C)NC(=O)[C@H](CCC(N)=O)NC(=O)[C@H](CCCNC(=N)N)NC(=O)[C@H](Cc1ccccc1)NC(=O)[C@H](CO)NC(=O)[C@@H]1CCCN1C(=O)[C@H](CS)NC(=O)[C@@H]1CCCN1C(=O)[C@H](CCCNC(=N)N)NC(=O)[C@H](Cc1c[nH]c2ccccc12)NC(=O)[C@H](CS)NC(=O)[C@H](CCCNC(=N)N)NC(=O)[C@H](CCCNC(=N)N)NC(=O)[C@H](CCCNC(=N)N)NC(=O)[C@H](CCC(N)=O)NC(=O)[C@H](CCCNC(=N)N)NC(=O)[C@H](CCCNC(=N)N)NC(=O)[C@H](CCCCN)NC(=O)[C@H](CCCCN)NC(=O)[C@H](CCCNC(=N)N)NC(=O)CNC(=O)[C@@H](N)Cc1ccc(O)cc1)[C@@H](C)CC)C(=O)N[C@@H](CCCNC(=N)N)C(=O)O [TAT-P3] (H-YGRKKRRQRRRCWRPCPSFRQLCGRFRIRCRIR-OH; N-terminus and C-terminus assumed)
A(H1N1)pdm09 virus [8]
  IC50 (H1N1): 0.68 µg/mL (≈ 0.156 µM)
A(H7N7) virus [5]
  IC50 (H7N7): 0.78 µg/mL (≈ 0.179 µM)

## CCN(CC)CCCC(C)Nc1ccnc2cc(Cl)ccc12 (centres unmarked) [chloroquine]
Endosomal acidification
  effective concentrations for inhibiting endosomal acidification: ~ 100 μM

## CC(=O)N[C@H]1[C@H]([C@H](O)[C@H](O)CO)OC(C(=O)O)=C[C@@H]1N=C(N)N [zanamivir]
A(H7N7) virus [9]
  body weight loss: significantly less body weight loss
  survival: 40%
A(H7N7) virus [10]
  susceptibility of virus to zanamivir: reduced susceptibility
A(H1N1)pdm09 virus [11]
  survival: 90%
A(H1N1)pdm09 virus [12]
  viral titers / viral replication in mouse lungs: significantly reduced
A(H1N1)pdm09 virus [12]; mouse
  IL-6 expression in mice: significantly reduced
  body weight loss: significantly reduced
  survival: 90%
